Results on 3 compounds are retold here after PMC11314561, “Design and Synthesis of Novel Aminoindazole-pyrrolo[2,3-b]pyridine Inhibitors of IKKα That Selectively Perturb Cellular Non-Canonical NF-κB Signalling” (Molecules, 2024).

As usually defined, the inhibition is the relative decrease from the control value, in per cent. Broadly, the IC50 is the concentration that inhibits the measured activity by half.

One test concerns the target MRCKβ(h) (Homo sapiens, UniProt Q9Y5S2). In words: kinase panel. The format is biochemical. The method in brief:
(§1)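 % inhibition read-out; kinome panel of 231 kinases; one analogue run on a selected 98-kinase subset only.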

In another test the target is NEK11(h) (Homo sapiens, UniProt Q8NG66). In words: kinase panel. In kind it is biochemical. An outline of the steps:
as §1

A further test deals with PKBγ(h) (Homo sapiens, UniProt Q9Y243). The test is described as follows: kinase panel. In kind it is biochemical. The method in brief: as §1
Another test addresses TAO2(h) (Homo sapiens, UniProt Q9UL54). In words: kinase panel. In kind it is biochemical. The method in brief:
as §1

For test [1], the system named is p100 phosphorylation (Ser866/870) in PC-3M cells. The test is described as follows: LTα1β2-stimulated p100 phosphorylation, Western blotting. The format is cell-based. Conditions: Homo sapiens, 1 h pre-treatment, LTα1β2 4 h. How it is done:
U2OS cells were cultured in McCoy’s 5A Modified Medium, and PC-3M-Luc-C6 prostate cancer cells were cultured in Minimum Essential Medium (MEM), each containing 10% (v/v) Foetal Calf Serum (FCS), L-glutamine ([…]), and penicillin/streptomycin (250 units/mL; 100 μg/mL) and incubated in a humidified atmosphere at 37 °C with 5% (v/v) CO2. Cells were grown to near confluence and prior to experimentation rendered quiescent by serum deprivation for 24 h.
(§2) For examination of potential effects of compound on non-canonical NF-κB signalling, cells were exposed to vehicle (DMSO; 0.03–0.05% (v/v)) or increasing concentrations of compounds (0.01–30 µM) for 1 h prior to treatment with FCS (10% (v/v); for U2OS cells) or LTα1β2 (20 ng/mL; for PC-3M cells) for 4 h. The status of p-p100 (Ser 866/870) in whole-cell extracts prepared from 12-well plates was assessed by Western blotting, as described in McKenzie et al.. […] Thereafter, p52 and RelB status in crude nuclear extracts normalised for protein amounts were assessed by Western blotting.
Each figure/panel of Western blotting data represents one of at least three separate experiments. Western blots were scanned and imaged using Adobe Photoshop 5.0.2 software and polypeptide bands were semi-quantified by scanning densitometry using the Scion Image program. […]
A general note: A western blot detects proteins with antibodies after separation by electrophoresis.

Test [2] has as its system p52/RelB nuclear translocation in PC-3M cells. In words: LTα1β2-stimulated p52/RelB nuclear translocation, Western blotting of crude nuclear extracts. The format is cell-based. Particulars: Homo sapiens, LTα1β2 4 h. The procedure: Associated with the IKKα-mediated activation of the non-canonical NF-κB pathway is the downstream liberation and the nuclear translocation of p52/RelB-containing NF-κB complexes. The extent of the nuclear translocation of these proteins was also assessed by Western blotting of crude nuclear extracts prepared from PC-3M cells. […] Related to the markers of TNFα-stimulated canonical NF-κB signalling, 6g [SU1349] had no impact on any of TNFα-stimulated IκBα degradation, phosphorylation of p65 (Ser536), or p105 (Ser932) phosphorylation in these cells (Figure 15C).
as §2
Each figure/panel of Western blotting data represents one of at least three separate experiments. […] Data were normalised to fold expression/inhibition relative to ‘agonist plus vehicle’ treatment and expressed as mean ± s.e.m. […]

PKBγ(h), sequence (Q9Y243 whole entry): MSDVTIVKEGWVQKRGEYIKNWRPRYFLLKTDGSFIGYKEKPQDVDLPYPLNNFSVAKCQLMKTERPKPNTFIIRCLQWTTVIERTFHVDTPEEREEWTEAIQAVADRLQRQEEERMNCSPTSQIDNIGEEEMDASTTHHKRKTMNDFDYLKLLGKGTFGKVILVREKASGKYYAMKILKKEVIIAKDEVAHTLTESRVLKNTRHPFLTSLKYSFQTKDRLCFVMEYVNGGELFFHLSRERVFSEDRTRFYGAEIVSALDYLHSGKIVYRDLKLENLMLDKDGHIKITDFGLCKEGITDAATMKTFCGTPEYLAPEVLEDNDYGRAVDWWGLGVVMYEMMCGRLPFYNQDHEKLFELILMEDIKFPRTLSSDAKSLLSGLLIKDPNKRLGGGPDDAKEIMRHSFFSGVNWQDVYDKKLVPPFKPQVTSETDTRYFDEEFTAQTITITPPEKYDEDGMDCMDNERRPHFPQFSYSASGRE
NEK11(h), sequence (Q8NG66 whole entry): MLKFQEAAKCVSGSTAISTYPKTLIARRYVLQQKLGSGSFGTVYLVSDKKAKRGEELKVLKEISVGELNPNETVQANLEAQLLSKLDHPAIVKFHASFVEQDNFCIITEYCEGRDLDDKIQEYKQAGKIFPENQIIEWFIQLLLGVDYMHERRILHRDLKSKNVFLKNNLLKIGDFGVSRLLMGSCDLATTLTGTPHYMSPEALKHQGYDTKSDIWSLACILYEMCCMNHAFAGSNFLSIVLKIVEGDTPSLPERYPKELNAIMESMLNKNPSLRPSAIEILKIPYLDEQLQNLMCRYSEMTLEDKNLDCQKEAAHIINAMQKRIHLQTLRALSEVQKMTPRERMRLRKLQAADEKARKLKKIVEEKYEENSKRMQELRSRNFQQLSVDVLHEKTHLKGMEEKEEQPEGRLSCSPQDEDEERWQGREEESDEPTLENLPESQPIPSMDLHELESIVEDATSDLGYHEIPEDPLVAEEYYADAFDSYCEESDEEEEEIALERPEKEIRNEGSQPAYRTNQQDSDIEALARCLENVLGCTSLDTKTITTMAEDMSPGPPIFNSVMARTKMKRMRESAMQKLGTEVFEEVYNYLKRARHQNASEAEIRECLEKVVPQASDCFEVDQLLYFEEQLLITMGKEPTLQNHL
TAO2(h), sequence (Q9UL54 whole entry): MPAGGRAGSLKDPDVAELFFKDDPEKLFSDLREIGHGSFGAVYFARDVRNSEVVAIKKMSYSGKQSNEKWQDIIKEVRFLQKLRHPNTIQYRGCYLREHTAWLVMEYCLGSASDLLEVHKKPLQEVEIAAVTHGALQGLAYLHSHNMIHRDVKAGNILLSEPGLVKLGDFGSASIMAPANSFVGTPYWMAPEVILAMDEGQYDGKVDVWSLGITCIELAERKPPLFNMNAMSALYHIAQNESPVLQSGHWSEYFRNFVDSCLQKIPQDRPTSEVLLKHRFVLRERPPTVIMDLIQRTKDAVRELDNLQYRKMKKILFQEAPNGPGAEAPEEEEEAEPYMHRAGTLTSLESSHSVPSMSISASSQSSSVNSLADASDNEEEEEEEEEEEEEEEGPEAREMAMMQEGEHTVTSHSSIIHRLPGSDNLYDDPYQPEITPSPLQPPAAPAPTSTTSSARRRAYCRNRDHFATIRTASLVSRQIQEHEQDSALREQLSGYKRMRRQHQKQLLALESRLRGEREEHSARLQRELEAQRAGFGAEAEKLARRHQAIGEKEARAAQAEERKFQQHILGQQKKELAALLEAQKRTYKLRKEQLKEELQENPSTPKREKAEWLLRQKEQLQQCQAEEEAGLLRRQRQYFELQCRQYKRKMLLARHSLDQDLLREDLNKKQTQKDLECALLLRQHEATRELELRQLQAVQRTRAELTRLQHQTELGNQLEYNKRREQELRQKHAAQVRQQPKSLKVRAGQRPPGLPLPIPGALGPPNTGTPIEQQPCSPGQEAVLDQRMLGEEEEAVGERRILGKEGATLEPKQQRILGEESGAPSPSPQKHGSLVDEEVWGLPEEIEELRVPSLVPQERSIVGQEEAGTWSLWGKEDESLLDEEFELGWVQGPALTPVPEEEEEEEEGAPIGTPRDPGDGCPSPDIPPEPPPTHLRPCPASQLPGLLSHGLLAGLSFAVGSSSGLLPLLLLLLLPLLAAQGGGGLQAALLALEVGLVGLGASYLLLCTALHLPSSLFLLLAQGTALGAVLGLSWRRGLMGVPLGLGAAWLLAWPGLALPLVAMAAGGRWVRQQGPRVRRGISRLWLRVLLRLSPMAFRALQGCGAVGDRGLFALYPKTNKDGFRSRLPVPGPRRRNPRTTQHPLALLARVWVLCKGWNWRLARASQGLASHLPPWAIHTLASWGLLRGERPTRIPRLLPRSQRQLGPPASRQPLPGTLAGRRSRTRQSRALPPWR
MRCKβ(h), sequence (Q9Y5S2 whole entry): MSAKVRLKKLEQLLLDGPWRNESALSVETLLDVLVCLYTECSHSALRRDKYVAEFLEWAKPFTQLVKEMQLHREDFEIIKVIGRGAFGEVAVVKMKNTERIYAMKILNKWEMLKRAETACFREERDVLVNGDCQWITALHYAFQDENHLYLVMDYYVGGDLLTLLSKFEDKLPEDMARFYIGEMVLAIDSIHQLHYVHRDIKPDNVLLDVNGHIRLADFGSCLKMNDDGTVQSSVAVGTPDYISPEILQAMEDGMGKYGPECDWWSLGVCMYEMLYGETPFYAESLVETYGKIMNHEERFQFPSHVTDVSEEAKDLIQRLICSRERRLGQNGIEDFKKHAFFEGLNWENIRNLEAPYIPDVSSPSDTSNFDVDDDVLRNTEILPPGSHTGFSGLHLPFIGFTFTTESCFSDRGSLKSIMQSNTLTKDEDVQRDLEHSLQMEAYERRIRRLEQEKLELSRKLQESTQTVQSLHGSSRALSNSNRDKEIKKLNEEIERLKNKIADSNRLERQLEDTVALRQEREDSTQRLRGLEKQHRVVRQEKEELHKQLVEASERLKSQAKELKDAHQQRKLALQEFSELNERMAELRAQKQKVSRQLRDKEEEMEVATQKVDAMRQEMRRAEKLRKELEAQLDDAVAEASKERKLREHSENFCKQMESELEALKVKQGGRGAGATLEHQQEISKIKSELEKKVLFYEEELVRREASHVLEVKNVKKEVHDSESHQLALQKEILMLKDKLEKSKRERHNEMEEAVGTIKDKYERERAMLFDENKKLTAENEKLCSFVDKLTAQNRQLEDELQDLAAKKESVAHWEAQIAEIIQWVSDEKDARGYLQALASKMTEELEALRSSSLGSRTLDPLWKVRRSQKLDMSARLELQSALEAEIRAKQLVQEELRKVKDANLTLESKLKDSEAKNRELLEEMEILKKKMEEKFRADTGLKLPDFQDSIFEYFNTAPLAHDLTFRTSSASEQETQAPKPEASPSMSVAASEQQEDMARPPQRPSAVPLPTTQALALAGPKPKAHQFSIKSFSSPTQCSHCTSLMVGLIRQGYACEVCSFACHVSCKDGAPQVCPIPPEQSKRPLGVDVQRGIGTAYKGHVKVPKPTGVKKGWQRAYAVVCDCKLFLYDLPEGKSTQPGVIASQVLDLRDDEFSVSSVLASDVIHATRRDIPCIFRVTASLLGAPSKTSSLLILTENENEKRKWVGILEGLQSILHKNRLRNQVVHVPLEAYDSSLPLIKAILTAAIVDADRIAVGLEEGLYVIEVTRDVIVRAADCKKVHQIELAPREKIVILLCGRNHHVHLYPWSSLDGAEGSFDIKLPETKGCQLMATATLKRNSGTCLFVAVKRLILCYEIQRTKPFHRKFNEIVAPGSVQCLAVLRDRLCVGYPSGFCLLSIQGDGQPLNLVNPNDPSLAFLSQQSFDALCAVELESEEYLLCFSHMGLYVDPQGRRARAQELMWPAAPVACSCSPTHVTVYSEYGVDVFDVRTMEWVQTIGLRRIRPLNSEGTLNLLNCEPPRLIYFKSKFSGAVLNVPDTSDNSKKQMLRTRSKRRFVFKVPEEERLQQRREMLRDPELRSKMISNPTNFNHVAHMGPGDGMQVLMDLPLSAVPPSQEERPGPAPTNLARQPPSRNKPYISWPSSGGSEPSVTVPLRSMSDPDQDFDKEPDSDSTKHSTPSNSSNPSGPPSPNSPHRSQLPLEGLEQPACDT

As for `Nc1n[nH]c2ccc(-c3ccnc4[nH]c(-c5ccccc5)cc34)cc12` [Compound 4], the inhibition at 1 µM is -10% against MRCKβ(h), 4% at NEK11(h), 12% on PKBγ(h) and 46% at TAO2(h).
Take `Nc1n[nH]c2ccc(-c3ccnc4[nH]c(-c5cccc(OCc6ccccc6)c5)cc34)cc12` [Compound 5r [SU1261]]: the half-inhibitory concentration (IC50) in test [1] came out at 570 nM. The inhibition at 1 µM was 4% against MRCKβ(h), -6% against NEK11(h), 0% against PKBγ(h) and 7% against TAO2(h).
As to `Nc1n[nH]c2ccc(-c3ccnc4[nH]c(-c5ccnc(OCc6ccccc6)c5)cc34)cc12` [Compound 6g [SU1349]], the values for the concentration for half-maximal inhibition (IC50) in test [1] and in test [2] were 200 nM and 150 nM, respectively.
